This note sets out measurements from PMC12876586, “Chronological lifespan extension and nucleotide salvage inhibition in yeast by isonicotinamide supplementation” (The Journal of Biological Chemistry, 2026).

What all share (type): biochemical
The target of test [1] is T1, Pho8 (Saccharomyces cerevisiae, UniProt P11491).
T1 construct: native enzyme in whole cell extract of pho13Δ strain (Pho8 the remaining alkaline phosphatase)
T1 sequence (P11491 1-534): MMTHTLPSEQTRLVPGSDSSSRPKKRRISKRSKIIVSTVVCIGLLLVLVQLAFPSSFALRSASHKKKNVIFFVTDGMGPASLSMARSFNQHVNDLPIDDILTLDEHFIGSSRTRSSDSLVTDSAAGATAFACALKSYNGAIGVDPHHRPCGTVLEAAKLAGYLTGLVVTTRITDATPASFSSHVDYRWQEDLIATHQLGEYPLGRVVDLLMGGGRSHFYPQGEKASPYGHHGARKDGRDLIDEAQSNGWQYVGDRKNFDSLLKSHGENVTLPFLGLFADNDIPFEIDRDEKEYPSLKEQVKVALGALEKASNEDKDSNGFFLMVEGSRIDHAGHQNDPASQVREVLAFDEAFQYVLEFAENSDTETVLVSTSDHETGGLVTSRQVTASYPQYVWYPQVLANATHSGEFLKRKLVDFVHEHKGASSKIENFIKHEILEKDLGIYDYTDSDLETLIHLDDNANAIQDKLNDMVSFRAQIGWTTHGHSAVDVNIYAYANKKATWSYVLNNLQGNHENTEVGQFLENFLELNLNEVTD
Nature of the test: pNPP hydrolysis, A400, whole cell extract of pho13Δ. Particulars: pNPP substrate, Mg2+, Zn2+, pH 8.8, 37 °C, 15 min; weak inhibitor.

The target in test [2] is T2, Sdt1 (Saccharomyces cerevisiae, UniProt P53078).
T2 construct: recombinant, C-terminal His tag, commercial (Echelon Biosciences)
Nature of the test: malachite green phosphate release. Particulars: 100 μM CMP (also inhibited with NMN), 5 mM MgCl2, pH 7.5, 37 °C, 30 min; mM INAM.

Another test addresses T3, Phm8 (Saccharomyces cerevisiae, UniProt P40025).
T3 construct: pET-16b (NdeI), E. coli BL21(DE3), C-terminal 10xHis as printed, Ni-NTA purified
T3 sequence (P40025 1-321): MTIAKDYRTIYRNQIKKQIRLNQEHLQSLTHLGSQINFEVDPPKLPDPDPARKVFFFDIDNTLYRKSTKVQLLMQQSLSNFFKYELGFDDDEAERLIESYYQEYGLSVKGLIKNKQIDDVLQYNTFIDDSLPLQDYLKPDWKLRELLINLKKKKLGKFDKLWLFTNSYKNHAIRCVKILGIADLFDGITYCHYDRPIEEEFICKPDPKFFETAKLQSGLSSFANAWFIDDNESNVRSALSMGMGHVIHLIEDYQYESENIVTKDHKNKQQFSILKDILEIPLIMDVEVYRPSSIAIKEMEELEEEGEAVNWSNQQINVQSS
Nature of the test: malachite green phosphate release. Particulars: 100 μM CMP, 5 mM MgCl2, pH 7.5, 37 °C, 30 min; mM INAM.

Test [3] addresses T4, Pho13 (Saccharomyces cerevisiae, UniProt P19881).
T4 construct: native enzyme in whole cell extract of pho8Δ strain (Pho13 the remaining alkaline phosphatase)
T4 sequence (P19881 1-312): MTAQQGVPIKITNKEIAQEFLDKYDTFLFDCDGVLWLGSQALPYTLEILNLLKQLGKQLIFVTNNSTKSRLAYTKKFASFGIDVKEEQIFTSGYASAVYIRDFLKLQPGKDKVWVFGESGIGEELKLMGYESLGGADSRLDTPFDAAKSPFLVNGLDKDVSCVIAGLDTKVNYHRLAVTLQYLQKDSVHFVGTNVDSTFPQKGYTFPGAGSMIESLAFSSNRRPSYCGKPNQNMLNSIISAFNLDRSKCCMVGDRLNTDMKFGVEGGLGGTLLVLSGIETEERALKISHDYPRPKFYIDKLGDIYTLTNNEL
The experiment in a line: pNPP hydrolysis, A400, whole cell extract of pho8Δ. Particulars: pNPP substrate, Mg2+, Zn2+, pH 8.8, 37 °C, 15 min; weak inhibitor.

Test [4] concerns the target T2, Sdt1. The experiment in a line: malachite green phosphate release. Particulars: 100 μM substrate, 5 mM MgCl2, pH 7.5, 37 °C, 30 min.
The target in test [5] is T2, Sdt1. The experiment in a line: malachite green phosphate release. Particulars: activator; 100 μM NMN, 5 mM MgCl2, pH 7.5, 37 °C, 30 min; mM NAM.
The target in test [6] is T1, Pho8. Nature of the test: pNPP hydrolysis, A400, whole cell extract of pho13Δ. Particulars: Mg2+, Zn2+, pH 8.8, 37 °C, 15 min.
Test [7] deals with T4, Pho13. Nature of the test: pNPP hydrolysis, A400, whole cell extract of pho8Δ. Particulars: Mg2+, Zn2+, pH 8.8, 37 °C, 15 min.

T2 sequence (P53078 whole entry): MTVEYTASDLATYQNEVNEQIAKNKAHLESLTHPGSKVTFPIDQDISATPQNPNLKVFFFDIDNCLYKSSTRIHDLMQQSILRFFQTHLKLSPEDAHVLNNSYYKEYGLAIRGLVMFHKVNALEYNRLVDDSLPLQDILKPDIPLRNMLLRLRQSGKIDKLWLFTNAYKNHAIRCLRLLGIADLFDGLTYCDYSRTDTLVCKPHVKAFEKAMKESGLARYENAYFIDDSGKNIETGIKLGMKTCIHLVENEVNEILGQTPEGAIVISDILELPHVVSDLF

Regarding `NC(=O)c1ccncc1` [isonicotinamide], the “inhibition of alkaline phosphatase activity” value on Pho8 [1] was “suggesting that Pho8 and Pho13 are both weak inhibitory targets”; against Pho13 [3], “suggesting that Pho8 and Pho13 are both weak inhibitory targets”. Also, the “inhibition of nucleotidase activity” value against Sdt1 [2] was “Sdt1 and Phm8 activity on CMP and NMN was significantly inhibited by INAM”; against Phm8, “INAM inhibition of recombinant Sdt1 and Phm8 nucleotidase activity on CMP in vitro”.

Consider `NC(=O)c1ccc[n+]([C@@H]2O[C@H](COP(=O)(O)O)[C@@H](O)[C@H]2O)c1` [nicotinamide mononucleotide], for which, on Sdt1 [4], the “malachite green phosphate release” value was “INAM inhibition of recombinant Sdt1 nucleotidase activity on NMN in vitro”.

In the case of `NC(=O)c1cccnc1` [nicotinamide], the “stimulation of nucleotidase activity” value at Sdt1 [5] is reported as “NAM caused significant dose-dependent stimulation of Sdt1 nucleotidase activity with NMN as substrate”.

Regarding `O=[N+]([O-])c1ccc(OP(=O)(O)O)cc1` [p-nitrophenyl phosphate], the “pNPP hydrolysis, A400, whole cell extract of pho13Δ” value on Pho8 [6] is listed as “both utilize pNPP as a substrate in vitro”. Further, the “pNPP hydrolysis, A400, whole cell extract of pho8Δ” value at Pho13 [7] is reported as “both utilize pNPP as a substrate in vitro”.
